How the values were obtained:
duck salad = test: Test B flood test duck salad; type: in vivo, Heteranthera limosa
Outline: (§1)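 Flood test on plants grown to the 2-leaf stage; treated plants kept in greenhouse twelve to sixteen days, then visually rated against controls on a 0 (no effect) to 10 (complete control) scale.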

rice = test: Test B flood test rice; type: in vivo, Oryza sativa
Outline: as §1

purple nutsedge = test: Test B pre/postemergence purple nutsedge; type: in vivo, Cyperus rotundus
Outline: (§2)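 Response is a visual 0-to-10 score relative to untreated plants, where 0 means no effect and 10 means complete control, taken twelve to sixteen days after application. Treatments went onto soil at planting and onto foliage of 1- to 4-leaf plants, using a surfactant-containing non-phytotoxic solvent.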

giant foxtail = test: Test B pre/postemergence giant foxtail; type: in vivo, Setaria faberii
Outline: as §2

morningglory = test: Test B pre/postemergence morningglory; type: in vivo, Ipomoea hederacea
Outline: as §2

smallflower flatsedge = test: Test B flood test smallflower flatsedge; type: in vivo, Cyperus difformis
Outline: as §1

wild oat = test: Test B pre/postemergence wild oat; type: in vivo, Avena fatua
Outline: as §2

blackgrass = test: Test B pre/postemergence blackgrass; type: in vivo, Alopecurus myosuroides
Outline: as §2

soybean = test: Test B pre/postemergence soybean; type: in vivo, Glycine max
Outline: as §2

crabgrass = test: Test B pre/postemergence crabgrass; type: in vivo, Digitaria sanguinalis
Outline: as §2

surinam grass = test: Test B pre/postemergence surinam grass; type: in vivo, Brachiaria decumbens
Outline: as §2

velvetleaf = test: Test B pre/postemergence velvetleaf; type: in vivo, Abutilon theophrasti
Outline: as §2

wheat = test: Test B pre/postemergence wheat; type: in vivo, Triticum aestivum
Outline: as §2

rape = test: Test B pre/postemergence rape; type: in vivo, Brassica napus
Outline: as §2

corn = test: Test B pre/postemergence corn; type: in vivo, Zea mays
Outline: as §2

[1] = Rate 62 g/ha, flood test species, Pre-emergence, visual evaluation after twelve to sixteen days
[2] = Rate 125 g/ha, under heading Pre-emergence, flood test species, visual evaluation after twelve to sixteen days
[3] = Rate 250 g/ha, Pre-emergence (flood test species), scale 0 to 10, 0 is no effect, 10 is complete control
[4] = Rate 500 g/ha, Pre-emergence section of Table B, 0 to 10 scale (0 no effect, 10 complete control)
[5] = Postemergence, Rate 62 g/ha, scale 0 to 10, 0 is no effect, 10 is complete control
[6] = Postemergence, Rate 125 g/ha, scale of 0 to 10 where 0 is no effect and 10 is complete control
[7] = Postemergence, Rate 250 g/ha, scale of 0 to 10, 0 is no effect, 10 is complete control
[8] = Postemergence, Rate 500 g/ha, scale of 0 to 10 where 0 is no effect and 10 is complete control
[9] = Preemergence, Rate 62 g/ha, scale of 0 to 10 where 0 is no effect and 10 is complete control
[10] = Preemergence, Rate 125 g/ha, scale of 0 to 10 where 0 is no effect and 10 is complete control
[11] = Preemergence, Rate 250 g/ha, scale 0 to 10 (0 no effect, 10 complete control)
[12] = Preemergence, Rate 500 g/ha, scale of 0 to 10 where 0 is no effect and 10 is complete control

## CC(C)N(C(=O)n1oc(=O)n(CC(=O)C2CCC2)c1=O)c1ccc(F)cc1F [Compound 642]
Duck salad; [1]
  Plant response rating, Ducksalad (0 to 10 scale, 0 is no effect, 10 is complete control): 0
Duck salad; [2]
  Ducksalad plant response rating (0 to 10 scale, 0 is no effect, 10 is complete control): 0
Duck salad; [3]
  Ducksalad plant response rating: 0
Duck salad; [4]
  Ducksalad plant response rating: 0
rice; [1]
  Plant response rating, Rice (0 to 10 scale, 0 is no effect, 10 is complete control): 0
rice; [2]
  Rice plant response rating (0 to 10 scale, 0 is no effect, 10 is complete control): 0
rice; [3]
  Rice plant response rating: 0
rice; [4]
  Rice plant response rating: 0
Purple nutsedge; [5]
  Plant response rating, Nutsedge: 0
Purple nutsedge; [6]
  Nutsedge plant response rating: 0
Purple nutsedge; [7]
  Nutsedge plant response rating: 0
Purple nutsedge; [8]
  Plant response rating, Nutsedge: 0
Purple nutsedge; [9]
  Nutsedge plant response rating: 0
Purple nutsedge; [10]
  Nutsedge plant response rating: 0
Purple nutsedge; [11]
  Plant response rating, Nutsedge: 0
Purple nutsedge; [12]
  Plant response rating, Nutsedge: 0
Giant foxtail; [5]
  Plant response rating, Giant foxtail: 0
Giant foxtail; [6]
  Giant foxtail plant response rating: 0
Giant foxtail; [7]
  Giant foxtail plant response rating: 4
Giant foxtail; [8]
  Plant response rating, Giant foxtail: 7
Giant foxtail; [9]
  Giant foxtail plant response rating: 8
Giant foxtail; [10]
  Giant foxtail plant response rating: 10
Giant foxtail; [11]
  Plant response rating, Giant foxtail: 10
Giant foxtail; [12]
  Plant response rating, Giant foxtail: 10
morningglory; [5]
  Plant response rating, Morningglory: 0
morningglory; [6]
  Morningglory plant response rating: 0
morningglory; [7]
  Morningglory plant response rating: 0
morningglory; [8]
  Plant response rating, Morningglory: 3
morningglory; [9]
  Morningglory plant response rating: 0
morningglory; [10]
  Morningglory plant response rating: 0
morningglory; [11]
  Plant response rating, Morningglory: 0
morningglory; [12]
  Plant response rating, Morningglory: 0
Smallflower flatsedge; [1]
  Plant response rating, S. Flatsedge (0 to 10 scale, 0 is no effect, 10 is complete control): 0
Smallflower flatsedge; [2]
  S. Flatsedge plant response rating (0 to 10 scale, 0 is no effect, 10 is complete control): 0
Smallflower flatsedge; [3]
  S. Flatsedge plant response rating: 0
Smallflower flatsedge; [4]
  S. Flatsedge plant response rating: 0
Wild oat; [5]
  Plant response rating, Wild oats: 1
Wild oat; [6]
  Wild oats plant response rating: 1
Wild oat; [7]
  Wild oats plant response rating: 1
Wild oat; [9]
  Wild oats plant response rating: 0
Wild oat; [10]
  Wild oats plant response rating: 0
Wild oat; [11]
  Plant response rating, Wild oats: 2
Wild oat; [12]
  Plant response rating, Wild oats: 4
blackgrass; [5]
  Plant response rating, Blackgrass: 0
blackgrass; [6]
  Blackgrass plant response rating: 0
blackgrass; [7]
  Blackgrass plant response rating: 6
blackgrass; [8]
  Plant response rating, Blackgrass: 6
blackgrass; [9]
  Blackgrass plant response rating: 0
blackgrass; [10]
  Blackgrass plant response rating: 0
blackgrass; [11]
  Plant response rating, Blackgrass: 4
blackgrass; [12]
  Plant response rating, Blackgrass: 7
soybean; [5]
  Plant response rating, Soybean: 2
soybean; [6]
  Soybean plant response rating: 2
soybean; [7]
  Soybean plant response rating: 2
soybean; [9]
  Soybean plant response rating: 0
soybean; [10]
  Soybean plant response rating: 0
soybean; [11]
  Plant response rating, Soybean: 0
soybean; [12]
  Plant response rating, Soybean: 0
crabgrass; [5]
  Plant response rating, Crabgrass: 0
crabgrass; [6]
  Crabgrass plant response rating: 0
crabgrass; [7]
  Crabgrass plant response rating: 0
crabgrass; [8]
  Plant response rating, Crabgrass: 5
crabgrass; [9]
  Crabgrass plant response rating: 6
crabgrass; [10]
  Crabgrass plant response rating: 8
crabgrass; [11]
  Plant response rating, Crabgrass: 10
crabgrass; [12]
  Plant response rating, Crabgrass: 10
Surinam grass; [5]
  Plant response rating, B. signalgrass: 0
Surinam grass; [6]
  Plant response rating, B. signalgrass: 0
Surinam grass; [7]
  B. signalgrass plant response rating: 0
Surinam grass; [8]
  Plant response rating, B. signalgrass: 0
Surinam grass; [9]
  B. signalgrass plant response rating: 0
Surinam grass; [10]
  B. signalgrass plant response rating: 2
Surinam grass; [11]
  Plant response rating, B. signalgrass: 5
Surinam grass; [12]
  Plant response rating, B. signalgrass: 8
velvetleaf; [5]
  Plant response rating, Velvetleaf: 0
velvetleaf; [6]
  Velvetleaf plant response rating: 0
velvetleaf; [7]
  Velvetleaf plant response rating: 3
velvetleaf; [9]
  Velvetleaf plant response rating: 0
velvetleaf; [10]
  Velvetleaf plant response rating: 0
velvetleaf; [11]
  Plant response rating, Velvetleaf: 0
velvetleaf; [12]
  Plant response rating, Velvetleaf: 3
wheat; [5]
  Plant response rating, Wheat: 0
wheat; [6]
  Wheat plant response rating: 0
wheat; [7]
  Wheat plant response rating: 0
wheat; [9]
  Wheat plant response rating: 0
wheat; [10]
  Wheat plant response rating: 0
wheat; [11]
  Plant response rating, Wheat: 0
wheat; [12]
  Plant response rating, Wheat: 0
rape; [5]
  Plant response rating, Rape: 0
rape; [6]
  Rape plant response rating: 0
rape; [7]
  Rape plant response rating: 0
rape; [8]
  Plant response rating, Rape: 0
rape; [9]
  Rape plant response rating: 0
rape; [10]
  Rape plant response rating: 2
rape; [11]
  Plant response rating, Rape: 4
rape; [12]
  Plant response rating, Rape: 9
corn; [5]
  Plant response rating, Corn: 0
corn; [6]
  Corn plant response rating: 0
corn; [7]
  Corn plant response rating: 0
corn; [8]
  Plant response rating, Corn: 0
corn; [9]
  Corn plant response rating: 0
corn; [10]
  Corn plant response rating: 0
corn; [11]
  Plant response rating, Corn: 0
corn; [12]
  Plant response rating, Corn: 0

Source: patent publication US6737383B1, “Herbicidal oxadiazolidines” (priority 1999, dated 2004)
